Read-outs that look alike come from different tables or passages of the source.
Columns and labels:
[1] = tested on: subjects with eosinophilic asthma
Description: Pulmonary function is measured by performing a spirometry, which measures forced expiratory volume in is (FEV1), the volume of air moved in the first second of exhalation, this is a well-accepted measure of asthma. Forced vital capacity (FVC) is the total volume of air exhaled during the entire forced expiratory volume (FEV) test. The FEV1/FVC ratio is a calculated measure that may provide a more specific measure of bronchoconstriction, independent of processes such as air trapping. Pulmonary function testing can be tested pre-bronchodilator (after waiting a sufficient time so that all bronchodilator medications have cleared) or post-bronchodilator, typically 15-30 minutes after inhaling a short-acting bronchodilator, such as albuterol. Bronchodilator reversibility (BDR) is calculated and assessed by analyzing FEV1 pre- and post-bronchodilator, and calculating the change both as absolute (ml) and percentage change.
Although some of the responsible factors are modifiable, such as suboptimal medication adherence and poor inhaler technique, others reflect intrinsic deficiencies in available asthma pharmacotherapy. This deficiency is particularly apparent in patients prone to severe asthma exacerbations. […] However, all of the biologics require parenteral administration. […] A 4-arm dose ranging placebo-controlled design was chosen to provide a range of drug exposure. Blood eosinophil lowering was chosen as the primary endpoint to facilitate identification of the lowest effective dose for use in future clinical development. The Primary Assessment Period of 12 weeks was chosen to provide adequate time to observe both pharmacodynamic endpoints, such as eosinophil lowering, as well as the clinical endpoints that may improve as a consequence of eosinophil lowering (FEV1, FVC, ACQ-6, ACQ-7, and AQLQ). The 12-week Eosinophil Recovery Period was chosen based on expected recovery to near baseline count in most subjects.

[2] = tested on: eosinophil peroxidase (EPX); conditions: worded as embodiment
Description: Eosinophil peroxidase (EPX) is a granule protein uniquely secreted by eosinophils which can be detected and quantified using an enzyme-linked immunosorbent assay (ELISA). EPX is measured from mucosal swabs or sputum samples. […] In embodiments, normal nasal EPX levels are less than about 10 ng/mg of total protein, whereas moderate to severe asthma of the eosinophilic phenotype may be diagnosed as having nasal EPX levels greater than about 10 ng/mg of total protein. […] Normal induced sputum EPX levels may be less than about 200 ng/mL/g recovered sputum, whereas moderate to severe asthma of the eosinophilic phenotype is diagnosed as having induced sputum EPX levels greater than about 200 ng/mL/g recovered sputum.
(§1) Evaluation of Efficacy: Blood eosinophil count, changes in pulmonary function (FEV1), Asthma Control Questionnaire (ACQ-6), Asthma Control Questionnaire (ACQ-7), Asthma Quality of Life Questionnaire (AQLQ), exhaled nitric oxide, pharyngeal and nasal eosinophil peroxidase were collected periodically during the study.

[3] = tested on: subjects with eosinophilic asthma; conditions: for ACQ-6 Change from Baseline LSM / ACQ-6 Difference vs Placebo LSM (95% CI): 12 weeks
Excerpt: The ACQ cutoff for well-controlled asthma is a score of about 0.75, and the ACQ cutoff for uncontrolled asthma is a score of about ≥1.5. An ACQ score change of ≥0.5 is considered clinically significant.
as §1
Juniper Asthma Control Six Point Questionnaire (ACQ-6)—Baseline and visits 5, 8, 11 and 14. The ACQ-6 will be used to assess improvements in asthma symptom control (6). The ACQ-6 was originally validated in participants with asthma aged 17 to 90 years (2, 3, and is one of several asthma control measures recommended by GINA Guidelines). The ACQ-6 consists of 6 items: 5 items on symptom assessment, 1 item on rescue bronchodilator use. The ACQ-6 has been fully validated, including a minimal important difference (MID) or smallest change that can be considered clinically important (0.5). The ACQ-6 will be self-administered at the clinic (questions 1-6 only) and it only takes a few minutes to complete. Participants are asked how they have been feeling during the past week and to score each item on a […] response scale, where 0 indicates ‘totally controlled’ and 6 indicates ‘severely uncontrolled.’ The total score is calculated as the mean of all questions. The questionnaire should always be completed before any other assessments.

[4] = tested on: subjects with eosinophilic chronic rhinosinusitis with nasal polyps; conditions: 150 mg twice daily
Excerpt: Current asthma medications work in a variety of ways. […] The co-primary endpoints were change in AEC and change in total polyp score (TPS) from baseline to Month 6, with additional clinical and histologic endpoints assessed.

blood eosinophils = conditions: 150 mg twice daily, after 6 months, open label, 16 subjects with eosinophilic chronic rhinosinusitis with nasal polyps
[5] = 12 subjects with a history of asthma

With `CCCN[C@@H]1CCc2nc(N)sc2C1` [dexpramipexole, (6R)-2-amino-4,5,6,7-tetrahydro-6-(propylamino) benzothiazole] as the compound, how does the “Pre-Bronchodilator FVC, % change from Baseline, mean” value (“Pre-Bronchodilator FVC, % change” below) ([1]; 75 mg/day, Week 4) read?
The value was 2.82%.

What about the “Pre-bronchodilator FVC change from Baseline LSM” value (shortened to “Pre-bronchodilator FVC change”) ([1]; 75 mg/day, Week 4) of the same compound?
The value was 0.0925.

And the “Pre-bronchodilator FVC difference versus Placebo LSM” value ([1]; 75 mg/day, Week 4)?
The value was 0.0785.

What about the “Pre-Bronchodilator FVC, % change” value ([1]; 75 mg/day, Week 8) of the same compound?
Its value is 7.17%.

What about the “Pre-bronchodilator FVC change” value ([1]; 75 mg/day, Week 8) of the same compound?
The value was 0.155.

What about the “Pre-bronchodilator FVC difference versus Placebo LSM” value ([1]; 75 mg/day, Week 8) of the same compound?
Its value is 0.149.

What about the “Pre-Bronchodilator FVC, % change” value ([1]; 75 mg/day, Week 12) of the same compound?
The value was 7.93%.

What about the “Pre-bronchodilator FVC change” value ([1]; 75 mg/day, Week 12) of the same compound?
Its value is 0.181.

And the “Pre-bronchodilator FVC difference versus Placebo LSM” value ([1]; 75 mg/day, Week 12)?
Its value is 0.140.

What about the “Pre-Bronchodilator FVC, % change” value ([1]; 75 mg/day, Week 16 or Week 18) of the same compound?
Its value is 13.4%.

What about the “Pre-bronchodilator FVC change” value ([1]; 75 mg/day, Week 16 or Week 18) of the same compound?
Its value is 0.297.

And the “Pre-bronchodilator FVC difference versus Placebo LSM” value ([1]; 75 mg/day, Week 16 or Week 18)?
Its value is 0.329.

What about the “Pre-Bronchodilator FVC, % change” value ([1]; 150 mg/day, Week 4) of the same compound?
Its value is 3.54%.

And the “Pre-bronchodilator FVC change” value ([1]; 150 mg/day, Week 4)?
Its value is 0.122.

What about the “Pre-bronchodilator FVC difference versus Placebo LSM” value ([1]; 150 mg/day, Week 4) of the same compound?
Its value is 0.108.

And the “Pre-Bronchodilator FVC, % change” value ([1]; 150 mg/day, Week 8)?
Its value is 5.28%.

And the “Pre-bronchodilator FVC change” value ([1]; 150 mg/day, Week 8)?
The value was 0.152.

What about the “Pre-bronchodilator FVC difference versus Placebo LSM” value ([1]; 150 mg/day, Week 8) of the same compound?
The value was 0.146.

What about the “Pre-Bronchodilator FVC, % change” value ([1]; 150 mg/day, Week 12) of the same compound?
Its value is 3.63%.

What about the “Pre-bronchodilator FVC change” value ([1]; 150 mg/day, Week 12) of the same compound?
The value was 0.0714.

And the “Pre-bronchodilator FVC difference versus Placebo LSM” value ([1]; 150 mg/day, Week 12)?
The value was 0.0304.

And the “Pre-Bronchodilator FVC, % change” value ([1]; 150 mg/day, Week 16 or Week 18)?
Its value is 7.33%.

And the “Pre-bronchodilator FVC change” value ([1]; 150 mg/day, Week 16 or Week 18)?
The value was 0.143.

And the “Pre-bronchodilator FVC difference versus Placebo LSM” value ([1]; 150 mg/day, Week 16 or Week 18)?
Its value is 0.175.

What about the “Pre-Bronchodilator FVC, % change” value ([1]; 300 mg/day, Week 4) of the same compound?
Its value is 1.91%.

What about the “Pre-bronchodilator FVC change” value ([1]; 300 mg/day, Week 4) of the same compound?
Its value is 0.0983.

What about the “Pre-bronchodilator FVC difference versus Placebo LSM” value ([1]; 300 mg/day, Week 4) of the same compound?
The value was 0.0844.

And the “Pre-Bronchodilator FVC, % change” value ([1]; 300 mg/day, Week 8)?
Its value is 11.5%.

What about the “Pre-bronchodilator FVC change” value ([1]; 300 mg/day, Week 8) of the same compound?
The value was 0.322.

What about the “Pre-bronchodilator FVC difference versus Placebo LSM” value ([1]; 300 mg/day, Week 8) of the same compound?
Its value is 0.316.

What about the “Pre-Bronchodilator FVC, % change” value ([1]; 300 mg/day, Week 12) of the same compound?
The value was 8.95%.

What about the “Pre-bronchodilator FVC change” value ([1]; 300 mg/day, Week 12) of the same compound?
The value was 0.257.

What about the “Pre-bronchodilator FVC difference versus Placebo LSM” value ([1]; 300 mg/day, Week 12) of the same compound?
Its value is 0.216.

And the “Pre-Bronchodilator FVC, % change” value ([1]; 300 mg/day, Week 16 or Week 18)?
Its value is 9.11%.

And the “Pre-bronchodilator FVC change” value ([1]; 300 mg/day, Week 16 or Week 18)?
The value was 0.267.

And the “Pre-bronchodilator FVC difference versus Placebo LSM” value ([1]; 300 mg/day, Week 16 or Week 18)?
The value was 0.299.

What about the “Reduction of the level of nasal EPX” value ([2]; daily dose of about 75 mg) of the same compound?
Its value is “about 36%”.

And the “Reduction of the level of nasal EPX” value ([2]; daily dose of about 150 mg)?
The value was “about 83%”.

What about the “Reduction of the level of nasal EPX” value ([2]; daily dose of about 300 mg) of the same compound?
Its value is “about 89%”.

What about the “ACQ-6 Change from Baseline LSM” value ([3]; 75 mg/day) of the same compound?
Its value is −0.419.

And the “ACQ-6 Difference vs Placebo LSM (95% CI)” value ([3]; 75 mg/day)?
Its value is −0.0276 (−0.560, 0.505).

And the “ACQ-6 Change from Baseline LSM” value ([3]; 150 mg/day)?
The value was −0.437.

What about the “ACQ-6 Difference vs Placebo LSM (95% CI)” value ([3]; 150 mg/day) of the same compound?
The value was −0.0457 (−0.575, 0.484).

And the “ACQ-6 Change from Baseline LSM” value ([3]; 300 mg/day)?
The value was −0.655.

What about the “ACQ-6 Difference vs Placebo LSM (95% CI)” value ([3]; 300 mg/day) of the same compound?
Its value is −0.264 (−0.772, 0.245).

And the ACQ-6 scores ([3]; across several dose groups, 12 weeks (Table 13))?
Its ACQ-6 scores is “improved”.

And the “Total polyp score (TPS), mean” value ([4]; 3 months (Baseline 5.29))?
The value was 5.50.

What about the “Other indices of chronic rhinosinusitis disease activity (SNOT-22, sinus CT score, Sniffin Sticks olfaction test)” value ([4]; 6 month trial) of the same compound?
The value was “not improved”.

And the “Total polyp score (TPS), mean” value ([4]; 6 months (Baseline 5.29))?
Its value is 5.42.

And the ACQ6 values [4, 5]?
The ACQ6 values was “unchanged”.

What about the FEV1 values [4, 5] of the same compound?
Its FEV1 values is “unchanged”.

And the “Lowering of the AEC” value (blood eosinophils)?
The value was 94%.

— patent publication US20240041840A1 (Areteia Therapeutics, Inc., priority 2020, published 2024)
